Assay results published in PMC10355216, “The C-terminal tail of CSNAP attenuates the CSN complex” (Life Science Alliance, 2023).

Assays:
[1] = test system: CSN^ΔCSNAP complex; test: Peptide array screen of C-CSNAP peptides with rCSN^ΔCSNAP; format: binding; conditions: average of 5 experiments;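 further: Array-printed peptides incubated with 0.5 µM CSN^ΔCSNAP, bound complex detected by anti-CSN3 antibody plus HRP-linked secondary, spot intensity expressed relative to the parent reference peptide spot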
[2] = test system: recombinant CSN complex; test: Peptide array screen of C-CSNAP peptides with recombinant CSN (rCSN^WT); format: binding; conditions: for Average fold change, intensities as fold of C-CSNAP (A1): rCSN^WT on INTAVIS Celluspots array, anti-CSN3 and HRP secondary antibody, average of six replicates (three independent experiments in duplicates); for Average fold change: peptide array with rCSN, average of 3 experiments, left and right (n = 6), fold of C-CSNAP (A1);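 on all read-outs here: densitometric signal of CSN bound to each synthesized peptide spot, with an antibody-only array lacking CSN run to exclude non-specific binding, higher values meaning stronger binding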
Procedure: To generate an optimized C-CSNAP peptide, we used the peptide array methodology. The array was designed to screen for the optimal peptide length, sequence, and stability (Fig 3A). A recombinant CSN complex was expressed, purified, and screened for binding to the peptide array by using an anti-CSN3 antibody. To rule out non-specific binding of the probing antibody, a control experiment was carried out without the addition of the CSN complex (Fig 3A right panel).
C-CSNAP peptide and its derivatives were synthesized on a microarray. The array was blocked and incubated with or without the COP9 signalosome complex (CSN) and probed using an anti-CSN3 antibody and HRP-conjugated secondary antibody. To assess non-specific binding of the antibodies to the array, anti-CSN3 and anti-GAR–HRP were used without the addition of the CSN. Signal intensity of each spot was measured and normalized to the intensity of the spot of C-CSNAP (A1). Measured values for each spot were averaged from six arrays and plotted with SEM. […] (A) A representative image of the peptide array (left) and the background (right). (B) Elongation of the C-terminal 16 amino acids (green) with one residue at a time based on the full-length sequence. […] (F) Single D-amino acid substitution at various positions.
Intensity values are normalized to the intensity of the 16AA C-CSNAP peptide (A1) on each array from three independent experiments in duplicates, and averages from the six replicates are calculated with SEM.
Optimization of C-CSNAP sequence for enhanced binding to recombinant CSN^ΔCSNAP was screened by printing the modified sequences of CSNAP or C-CSNAP (Phe to Trp, Asp to Glu, Ala screen, D-amino acid screen, N-α-methylation, and Aib incorporation on INTAVIS Celluspots array [2 × 384spots]). The array was blocked with 5% skim milk in TBS-0.5% Tween 20 (TBS-T) for 4 h at room temperature, washed three times in TBS-T, and then incubated with 0.5 μM CSN^ΔCSNAP in 5% milk–TBS-T. Bound CSN^ΔCSNAP was visualized by incubating with anti-CSN3 (ab79698) antibody (1:10,000, overnight) and goat-anti-rabbit-HRP secondary antibody (1:10,000, 1 h).

[3] = peptide array, rCSN^ΔCSNAP, left and right spots
[4] = peptide array with rCSN^ΔCSNAP, left and right (n = 10), fold of C-CSNAP (A1)

## EFFNDFEELFDDDEIQ [Position E12, C-CSNAP, Asp to Glu substitution D42,49,55E]
[1]; [3]
  Average fold change: 0.9711 fold of C-CSNAP (A1)
[2]
  Average fold change, intensities as fold of C-CSNAP (A1): 0.6694 fold of C-CSNAP (A1)

## DFFN-Aib-FEDLF-Aib-DDDIQ-Aib [Position H15, C-CSNAP with Aib incorporation (46,52,58)]
[1]; [3]
  Average fold change, intensities as fold of C-CSNAP (A1): 0.5199 fold
[2]
  Average fold change, intensities as fold of C-CSNAP (A1): 0.4542 fold of C-CSNAP (A1)
[2]; rCSN^WT peptide array, replicate: Experiment #1, left array
  intensities as fold of C-CSNAP (A1), Experiment #1 left: 0.3458 fold of C-CSNAP (A1)
[2]; rCSN^WT peptide array, replicate: Experiment #1, right array
  intensities as fold of C-CSNAP (A1), Experiment #1 right: 0.3290 fold of C-CSNAP (A1)
[2]; rCSN^WT peptide array, replicate: Experiment #2, left array
  intensities as fold of C-CSNAP (A1), Experiment #2 left: 0.2291 fold of C-CSNAP (A1)
[2]; rCSN^WT peptide array, replicate: Experiment #2, right array
  intensities as fold of C-CSNAP (A1), Experiment #2 right: 0.4652 fold of C-CSNAP (A1)
[2]; rCSN^WT peptide array, replicate: Experiment #3, left array
  intensities as fold of C-CSNAP (A1), Experiment #3 left: 0.2799 fold of C-CSNAP (A1)
[2]; rCSN^WT peptide array, replicate: Experiment #3, right array
  intensities as fold of C-CSNAP (A1), Experiment #3 right: 1.0762 fold of C-CSNAP (A1)

## DFFNDFEELFDDDDIQ [D 5, C-CSNAP, Asp to Glu substitution D49E]
[1]; [3]
  Average fold change: 0.9235 fold of C-CSNAP (A1)
[2]
  Average fold change, intensities as fold of C-CSNAP (A1): 0.8086 fold of C-CSNAP (A1)

## DFFNDFEELFDEDDIQ [Position D22, C-CSNAP, Asp to Glu substitution D49,53E]
[1]; [3]
  Average fold change: 1.3252 fold of C-CSNAP (A1)
[2]
  Average fold change, intensities as fold of C-CSNAP (A1): 0.6642 fold of C-CSNAP (A1)

## DFFNDFEDLFEDDDIQ [D 6, C-CSNAP, Asp to Glu substitution D52E]
[1]; [3]
  Average fold change: 1.1581 fold of C-CSNAP (A1)
[2]
  Average fold change, intensities as fold of C-CSNAP (A1): 0.9809 fold of C-CSNAP (A1)

## YVDLDEAGGSTGLLMDLAANEKAVHADFFNDFEDLFDDDDIQ [B 3, CSNAP residues 16-57]
[1]; [4]
  Average fold change: 0.9215 fold
[2]
  Average fold change, intensities as fold of C-CSNAP (A1): 1.1108 fold of C-CSNAP (A1)

## DFFNDWEDLFDDDDIQ [Position C14, C-CSNAP, Phe to Trp substitution F47W]
[1]; [3]
  Average fold change: 1.1204 fold of C-CSNAP (A1)
[2]
  Average fold change, intensities as fold of C-CSNAP (A1): 0.9440 fold of C-CSNAP (A1)

## DFFNDFEDAFDDDDIQ [C 4, C-CSNAP, Ala substitution L50A]
[1]; [4]
  Average fold change: 0.8879 fold
[2]
  Average fold change, intensities as fold of C-CSNAP (A1): 0.5335 fold of C-CSNAP (A1)

## DFFNDFEELFDDDEIQ [Position D24, C-CSNAP, Asp to Glu substitution D49,55E]
[1]; [3]
  Average fold change: 1.2175 fold of C-CSNAP (A1)
[2]
  Average fold change, intensities as fold of C-CSNAP (A1): 0.5347 fold of C-CSNAP (A1)

## DFFNEFEDLFDDEDIQ [Position D19, C-CSNAP, Asp to Glu substitution D46,54E]
[1]; [3]
  Average fold change: 1.1127 fold of C-CSNAP (A1)
[2]
  Average fold change, intensities as fold of C-CSNAP (A1): 0.6165 fold of C-CSNAP (A1)

## EFFNEFEELFEEEDIQ [D42,46,49,52,53,55E]
[1]; [3]
  Average fold change: 1.2784 fold of C-CSNAP (A1)
[2]
  Average fold change: 0.4075 fold

## EFFNEFEELFEEEDIQ [D42,46,49,52,53, 54E]
[1]; [3]
  Average fold change: 0.9285 fold of C-CSNAP (A1)
[2]
  Average fold change: 0.5691 fold

## DFFNEFEDLFDDDEIQ [Position D20, C-CSNAP, Asp to Glu substitution D46,55E]
[1]; [3]
  Average fold change: 1.3581 fold of C-CSNAP (A1)
[2]
  Average fold change, intensities as fold of C-CSNAP (A1): 0.7799 fold of C-CSNAP (A1)

## EFFNDFEDLFDDDEIQ [Position D15, C-CSNAP, Asp to Glu substitution D42,55E]
[1]; [3]
  Average fold change: 1.0098 fold of C-CSNAP (A1)
[2]
  Average fold change, intensities as fold of C-CSNAP (A1): 0.7777 fold of C-CSNAP (A1)

## DFFNDFEDLFDDDEIQ [D 9, C-CSNAP, Asp to Glu substitution D55E]
[1]; [3]
  Average fold change: 1.0696 fold of C-CSNAP (A1)
[2]
  Average fold change, intensities as fold of C-CSNAP (A1): 1.0265 fold of C-CSNAP (A1)

## EFFNDFEDLFEEDEIQ [D42,52,53,55E]
[1]; [3]
  Average fold change: 1.0660 fold of C-CSNAP (A1)
[2]
  Average fold change: 0.6502 fold

## EFFNEFEDLFDDDDIQ [Position D10, C-CSNAP, Asp to Glu substitution D42,46E]
[1]; [3]
  Average fold change: 1.0622 fold of C-CSNAP (A1)
[2]
  Average fold change, intensities as fold of C-CSNAP (A1): 0.8862 fold of C-CSNAP (A1)

## EFFNDFEDLFDDEDIQ [Position D14, C-CSNAP, Asp to Glu substitution D42,54E]
[1]; [3]
  Average fold change: 1.0310 fold of C-CSNAP (A1)
[2]
  Average fold change, intensities as fold of C-CSNAP (A1): 0.7060 fold of C-CSNAP (A1)

## VDLDEAGGSTGLLMDLAANEKAVHADFFNDFEDLFDDDDIQ [B 2, CSNAP residues 17-57]
[1]; [4]
  Average fold change: 0.8221 fold
[2]
  Average fold change, intensities as fold of C-CSNAP (A1): 0.7909 fold of C-CSNAP (A1)
